Results taken from publication PMC2921341, “Interaction of Serum- and Glucocorticoid Regulated Kinase 1 (SGK1) with the WW-Domains of Nedd4-2 Is Required for Epithelial Sodium Channel Regulation” (PLoS ONE, 2010).

Test system: SGK
Assay: GST pulldown of SGK from COS7 lysate with WW-domain GST fusion proteins
Format: binding, human
Conditions: GST fusion on glutathione-Sepharose, COS7 lysate with SGK-FLAG or ΔN60SGK-HA, 3 h at 4°C, western blot, n = 7
Method: In order to better understand the molecular nature of the interaction between Nedd4-2 and SGK, in vitro GST pulldown studies were performed. […] Individual WW-domains of Nedd4-2 or Nedd4, or combinations of Nedd4-2 WW-domains, were expressed as GST fusion proteins and purified on glutathione-Sepharose beads. Lysates of COS7 cells expressing SGK or ΔN60-SGK (both SGK constructs gave the same results) were incubated with the WW-domain fusion proteins or GST alone. Bound SGK was detected by western blotting with anti-FLAG/HA.
pGEX-KG containing the cDNA of WW-domains of Nedd4 and Nedd4-2 or the empty vector were transformed into Escherichia coli strain BL21, and expression of the WW-domains-GST fusion protein or GST alone was induced with 0.5 µM isopropyl-D-1-thiogalactopyranoside for 3 h at 37°C. Bacteria were lysed using BugBuster (Novagen, Merck KGaA, Darmstadt, Germany), and the GST fusion proteins were purified on glutathione-Sepharose beads (GE Healthcare, Little Chalfont, Bucks, U.K.). COS7 cells were transiently transfected with pMT3 containing SGK/SGKS422D-FLAG or ΔN60SGK-HA. […] The glutathione-Sepharose beads, along with the fusion proteins and any binding proteins, were collected by centrifugation (1 min, 16,000 g), washed extensively in T-TBS and analyzed by SDS-PAGE and Western blotting using anti-FLAG antibody. Resulting X-ray films were analyzed densitometrically.

Substance | binding to SGK in GST pulldown (in words)
Nedd4 WW1: WW-domain 1 of Nedd4, GST fusion (SPLPPGWEERQDILGRTYYVNHESRRTQWKRPTP; left off: GST, end not stated, kept) | interact with SGK
Nedd4 WW3: WW-domain 3 of Nedd4 (GFLPKGWEVRHAPNGRPFFIDHNTKTTTWEDPRL; left off: GST, end not stated, cleaved) | interact with SGK
